Experimental data: paper PMC11157767 (Molecular Cancer, 2024)

Experiments:
[1] = In vitro protein binding assay, culture media; type: in vitro ADME; details: read-out: unbound drug fraction, Culture Media, AVG
pMET, pErk, pAkt = assay: Phosphoprotein IHC/western blot in TFG-MET allograft tumors (PD and Survival cohort); type: in vivo, mouse; details: for levels of phosphorylated MET, Erk and Akt in initial neoplasms: PD cohort, after second treatment, vs vehicle
Method: Error bars display standard error of the mean. Statistical significance was determined using a One-Way ANOVA followed by Tukey’s multiple comparisons test (*p<0.05, **p<0.01, ***p<0.001, ****p<0.0001)
All treatments started 1 week after transplantation. Radio therapy was administered for 6 days, delivering 12 Gy total. Compound treatment was continued for 84 days. […] N = 8 (vehicle arms) or n = 10 (compound-treated arms), respectively.

RAD51 = assay: Western blot of RAD51 in TRIM24-MET or TFG-MET cells, 24 hours; type: cell-based, human and mouse
Method: Error bars display standard error of mean, statistical significance was determined using t-test analysis. (****;p<0.0001, ***;p<0.001, **;p<0.01, *;p<0.05). […] Each dot represents an individual replicate. Error bars display standard error of the mean. Statistical significance was determined using a One-Way ANOVA followed by Tukey’s multiple comparisons test (*p<0.05, **p<0.01, ***p<0.001, ****p<0.0001). Lysate from lane 10 was excluded due to the different timepoint after RT

SMILES	fraction unbound [1]	levels of phosphorylated MET, Erk and Akt in initial neoplasms (pMET, pErk, pAkt)	animals with pMET and pErk reduced to background levels (pMET, pErk, pAkt; Survival cohort, sacrificed under treatment)	RAD51 protein level (RAD51)
CNC(=O)c1ccc(-c2cnc3ncc(Cc4ccc5ncccc5c4)n3n2)cc1F [Capmatinib]	0.705	greatly reduced levels	4/6	downregulation
C[C@@H](Oc1cc(-c2cnn(C3CCNCC3)c2)cnc1N)c1c(Cl)ccc(F)c1Cl [Crizotinib]	0.617	less complete reduction		downregulation
